Measured values as given in article PMC11048033, “Dual Anti-Inflammatory and Anticancer Activity of Novel 1,5-Diaryl Pyrazole Derivatives: Molecular Modeling, Synthesis, In Vitro Activity, and Dynamics Study” (Biomedicines, 2024).

How the values were obtained:
[1] = target: BSA (bovine albumin serum) (Bos taurus, UniProt P02769); assay: Protein (albumin) denaturation assay; conditions: maximum inhibition; compounds tested at 50-200 µg/mL, diclofenac 100 µg/mL
Method: Mizushima and Kobayashi’s technique was employed for the determination of in vitro anti-inflammatory activity by the protein denaturation method for the synthesized compounds. […] Then, a mixture of 500µL of 1% aqueous solution of BSA (bovine albumin serum) and 1.4 mL of phosphate buffer saline (PBS, pH 7.4) was added to 100 µL of varying concentrations of the synthesized compounds 50, 100, and 200 µg/mL. […] The mixtures are then incubated for 15 min at 37 °C and then heated for 10 min at 60 °C. The absorbance was measured at 660nm (SHIMADZU, UV-1800 Spectrophotometer) upon cooling. […] The entire experiment was done in triplicate, and the average was calculated. % inhibition of protein denaturation was calculated by: % inhibition=Absorbance of Control−Absorbance of Sample/Absorbance of Control×100
The anti-inflammatory capacity of the target compound was evaluated using the protein denaturation assay.

[2] = target: T1, Human COX-2 (Homo sapiens, UniProt P35354); assay: In vitro COX-2 enzymatic assay (Cayman COX (human) Inhibitor Screening Assay Kit); format: biochemical
T1 construct: purchased Cayman Chemicals 701230
T1 sequence (P35354 18-604): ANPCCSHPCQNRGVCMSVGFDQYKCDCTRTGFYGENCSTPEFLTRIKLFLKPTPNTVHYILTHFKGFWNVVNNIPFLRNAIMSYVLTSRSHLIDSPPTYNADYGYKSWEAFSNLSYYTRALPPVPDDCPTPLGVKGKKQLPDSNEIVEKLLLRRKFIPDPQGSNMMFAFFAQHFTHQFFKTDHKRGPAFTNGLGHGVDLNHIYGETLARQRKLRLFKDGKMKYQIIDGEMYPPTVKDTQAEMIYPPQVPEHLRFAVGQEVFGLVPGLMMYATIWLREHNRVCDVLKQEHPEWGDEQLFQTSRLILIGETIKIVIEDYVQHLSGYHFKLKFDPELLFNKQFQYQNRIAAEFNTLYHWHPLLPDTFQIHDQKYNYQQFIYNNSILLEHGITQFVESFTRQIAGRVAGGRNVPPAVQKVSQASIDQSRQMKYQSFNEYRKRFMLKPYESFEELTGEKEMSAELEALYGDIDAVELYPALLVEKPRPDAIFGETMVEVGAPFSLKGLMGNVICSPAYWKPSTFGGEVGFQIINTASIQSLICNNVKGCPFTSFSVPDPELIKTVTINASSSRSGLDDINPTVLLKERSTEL
Method: The ability of the compounds to inhibit COX -2 (IC50 values, µM) was determined by using a “COX (human) Inhibitor Screening Assay Kit” procured from Cayman Chemicals (catalog number 701230). With a slight modification in the method as defined in the reference, the COX-2 inhibition assay was performed. Using the percent conversion of arachidonic acid (AA) to PGH2, the enzyme activity was calculated. By enzyme immunoassay PGF2α, which is produced from PGH2 by reduction with stannous chloride, is calculated. The test compounds’ stock solutions are prepared by dissolving in a minimum amount of DMSO. Human COX-2 (10 µL) in the presence of 10 µL of heme was suspended in 0.1M Tris-HCl buffer (pH 8.0) which contains 2 mM phenol and 5 mM EDTA. This was added to various concentrations of test compounds and, on incubating the solutions at 37 °C for 5 min, 10 µL of AA solution were added. Later, the COX reaction was stopped by adding 1M HCl (50 µL) after 2 min. The intensity of the yellow color which is produced as the product of the enzymatic reaction is determined spectrophotometrically. The percent inhibition was calculated by comparing the compound treated to different control incubations. […] The determinations are done in triplicate and the IC50 (µM) was determined using the concentration–inhibition response curve.
During the initiation of the inflammatory process, the COX enzyme plays a vital role in the progression of inflammatory response. The inflammatory mediators that arise due to the action of COX lead to the chemoattraction of neutrophils, macrophages, eosinophils, etc. […] This was carried out with the help of a COX (human) inhibitor screening assay kit (Item no. 701230) from Cayman chemicals. […] A test substance concentration was considered to be inhibitive when it inhibited human COX-1 or COX-2 by 50%. The compound’s selectivity was measured by its selectivity index values, derived as IC50 (COX-1)/IC50 (COX-2).

[3] = test system: HEPG2 (human liver) cell line; assay: MTT anticancer assay, HepG2; format: cell-based; conditions: for IC50 against HepG2: MTT
Method: The in vitro anticancer activity is determined by counting the viable cells that are stained with a vital dye. The MTT technique is an accurate measure of the activity of live cells using mitochondrial dehydrogenases. The target tumor cells A549 (human lung adenocarcinoma) and HEPG2 (human liver) cell lines are procured from the “National Centre for Cell Science” (NCCS, Pune). The sources of reagents like Trypsin, DMEM, Pen strip, and FBS are procured from Himedia. […] The culture medium was prepared, and the MTT assay was performed as per the general procedure described by Mosmann T. et al., [30] and the % viability of the cells was determined.
The target compounds tested for in vitro COX-2 were further checked for in vitro anti-cancer activity against A549 (lung cancer) and HepG2 (liver cancer) cell lines using MTT growth inhibition assay. The compounds were tested for cytotoxicity against both the cell lines at concentrations of 6.25, 12.5, 25, 50, and 100 µg/mL. […] Using the graph where % cell viability is plotted versus concentration, the IC50 values are determined with the help of the dose–response regression equation.

BSA (bovine albumin serum), sequence (P02769 25-607): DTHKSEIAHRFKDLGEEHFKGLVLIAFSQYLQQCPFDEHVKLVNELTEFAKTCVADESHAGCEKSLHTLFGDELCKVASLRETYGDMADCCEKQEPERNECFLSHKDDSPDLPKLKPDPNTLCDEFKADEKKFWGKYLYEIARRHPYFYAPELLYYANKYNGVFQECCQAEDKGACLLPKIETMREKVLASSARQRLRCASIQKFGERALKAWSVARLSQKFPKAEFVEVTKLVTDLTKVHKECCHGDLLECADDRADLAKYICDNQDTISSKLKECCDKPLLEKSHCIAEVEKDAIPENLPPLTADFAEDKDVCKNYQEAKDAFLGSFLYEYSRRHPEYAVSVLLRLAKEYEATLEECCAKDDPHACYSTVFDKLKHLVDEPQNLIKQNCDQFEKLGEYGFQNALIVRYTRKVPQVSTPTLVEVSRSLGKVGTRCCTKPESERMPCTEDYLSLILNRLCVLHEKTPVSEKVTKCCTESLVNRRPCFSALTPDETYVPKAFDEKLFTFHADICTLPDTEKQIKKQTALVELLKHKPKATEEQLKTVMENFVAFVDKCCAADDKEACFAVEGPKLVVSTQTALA

Row | SMILES | % inhibition of albumin denaturation [1] [%] | % COX-2 Inhibition ([2]; 0.781 μg/ml) [%] | % COX-2 Inhibition ([2]; 1.562 μg/ml) [%] | % COX-2 Inhibition ([2]; 3.125 μg/ml) [%] | % COX-2 Inhibition ([2]; 6.25 μg/ml) [%] | % COX-2 Inhibition ([2]; 12.5 μg/ml) [%] | % COX-2 Inhibition ([2]; 25 μg/ml) [%] | % COX-2 Inhibition ([2]; 50 μg/ml) [%] | % COX-2 Inhibition ([2]; 100 μg/ml) [%] | % COX-2 Inhibition ([2]; 250 μg/ml) [%] | % cell viability ([3]; HepG2, 6.25 µg/ml) [%] | % cell viability ([3]; HepG2, 12.5 µg/ml) [%] | % cell viability ([3]; HepG2, 25 µg/ml) [%] | % cell viability ([3]; HepG2, 50 µg/ml) [%] | % cell viability ([3]; HepG2, 100 µg/ml) [%] | IC50 against HepG2 [3] [µM] | Selectivity Index [2] | concentration at which compound was effective (from % inhibitory values) ([3]; HepG2 cell lines) [µg/mL]
1 | NS(=O)(=O)c1ccc(-n2nc(C(=O)NN=Cc3cccc(Oc4ccccc4)c3)cc2-c2ccc(Cl)cc2)cc1 [Compound T3, 4-(5-(4-chlorophenyl)-3-(2-(3-phenoxybenzylidene) hydrazine-1-carbonyl)-1H-pyrazol-1-yl) benzenesulfonamide] | 63.32 | 55.34 ± 1.03 | 61.82 ± 1.20 | 66.67 ± 0.96 | 71.48 ± 0.78 | 73.95 ± 0.27 | 76.28 ± 0.70 | 78.94 ± 0.72 | 81.06 ± 0.47 | 85.38 ± 0.73 | 84.39 | 84.40 | 73.65 | 73.62 | 54.76 | > 100 |  | 
2 | Cc1cc(C=NNC(=O)c2cc(-c3ccc(Br)cc3)n(-c3ccc(S(N)(=O)=O)cc3)n2)cc(C)c1OCc1ccccc1 [Compound T5, 4-(3-(2-(4-(benzyloxy)-3,5-dimethylbenzylidene) hydrazine-1-carbonyl)-5-(4-bromophenyl)-1H-pyrazol-1-yl) benzenesulfonamide] | 70.87 | 65.66 ± 1.05 | 72.1 ± 6.01 | 78.03 ± 2.98 | 84.28 ± 2.50 | 85.04 ± 2.38 | 86.71 ± 0.50 | 87.64 ± 1.43 | 88.64 ± 0.86 | 89.35 ± 0.86 | 84.40 | 73.66 | 73.42 | 54.76 | 39.32 | 66.93 | 7.16 | 50
